Laboratory results: US20220403001A1, “PDE5 DERIVED REGULATORY CONSTRUCTS AND METHODS OF USE IN IMMUNOTHERAPY” (Obsidian Therapeutics, Inc., priority 2018, published 2022)
Values joined by “and” are separate entries in the source; they are usually repeats but may differ in a detail not shown here. Equal values may be shown once.

Key:
[1] = biological target: T1, hPDE5 mutants (Homo sapiens, UniProt O76074); assay: GFP FACS analysis of hPDE5 mutant library clones in NIH3T3 cell pools; details: for Stabilization ratio: GFP intensity 10 μM vardenafil vs DMSO
Description: (§11) These constructs were packaged into lentivirus, transduced into NIH3T3 cells and select stable cell pools were derived as described below. […] Lentiviral stocks were used for transduction of NIH3T3 cells and subsequent cell pool selection. The day before transduction, NIH3T3 cells (1.8×10^6) were seeded in a T-25 flask and allowed to reach 60-70% confluency (˜1 day). The growth medium in the T-25 flask was then replaced with 1 mL virus (quickly thawed in a 37° C. water bath) and 5 μg/mL polybrene. […] Transduction medium was removed the following day and replaced with 5 mL fresh medium. At 48 hr after transduction, the medium was replaced with media containing 1 μg/mL puromycin. This puromycin medium was replaced every 3-4 days until cell pools were established (˜2 weeks).
(§12) The mean fluorescence intensity (MFI) of GFP at 100 μM concentration treatment was set as 100% hPDE5 stabilization effect (HPE), while DMSO treatment was set as 0% effect (ZPE) of hPDE5 stabilization. The effect of the compound on hPDE5 stabilization was calculated based on the following formula: % PDE5 stabilization effect=(MFI-ZPE)/(HPE-ZPE)×100.
(§13) Plots of the % effect versus concentration were generated with Graphpad Prism 5 and EC50 values were calculated using a four-parameter nonlinear regression model.
(§14) Select PDE5 clones from both experiment 1 and experiment 2 were directly compared. […] The stabilization ratio was calculated as the fold change in GFP intensity in ligand treated samples compared to treatment with DMSO (i.e. in the absence of ligand) with the same construct.

[2] = tested on: hPDE5 mutants; assay: as above
Description: as §11, §12, §13, §14

[3] = biological target: T1, hPDE5 mutants; assay: GFP MFI by FACS in HCT116 cells transduced with hPDE5 constructs; format: cell-based
Description: (§1) Desirable qualities of a DD include, low expression of the SRE in the absence of ligand and ligand dependent stabilization of the SRE. Constructs were generated using DDs linked to GFP using an SG linker. […] The mean fluorescence intensity (MFI) of GFP was analyzed by FACS. […] Destabilizing mutation coefficient less than 1 are desirable.
(§2) Mean fluorescence intensity (MFI) was measured by FACS. […] Destabilizing mutation coefficient ratios less than 1 are desirable.
(§3) Mean fluorescence intensity (MFI) was measured by FACS. […] Destabilizing mutation co-efficient ratios less than 1 are desirable.
(§4) Mean fluorescence intensity (MFI) was measured by FACS. […] Destabilizing mutation coefficient less than 1 are desirable.
as §4
(§5) Mean fluorescence intensity (MFI) of GFP was measured by FACS.
(§6) Mean fluorescence intensity (MFI) was measured by FACS.
(§7) The media containing the ligand was removed and fresh media without the ligand was added.
(§8) The properties of the DDs were analyzed in the presence and absence of ligands via FACS as previously described.
(§9) GFP fluorescence was measured by FACS.
(§10) The properties of the DDs were analyzed via FACS both in the presence and absence of ligands.
as §9

[4] = tested on: hPDE5 mutants; assay: as above; format: cell-based, human
Description: as §1, §2, §3, §4, §4, §5, §6, §7, §8, §9, §10, §9

[5] = GFP intensity ligand treated vs DMSO, direct comparison of clones

Stabilization ratio ([1]; experiment 1): 1.6 and 1.5 and 1.4
Stabilization ratio ([1]; experiment 2): 1.5
Stabilization ratio Sildenafil [1, 5]: 1.05
Stabilization ratio Tadalafil [1, 5]: 1.50
Stabilization ratio Vardenafil [1, 5]: 1.78
Mean fluorescence intensity (MFI) 10 μM VDF ([1]; GFP, cell pools, 10 μM vardenafil 24 hr, experiment 2): 45616 and 43134
Mean fluorescence intensity (MFI) DMSO ([1]; GFP, cell pools, no ligand (DMSO), experiment 2): 30404 and 29006
Fluorescence intensity Sildenafil ([1]; median GFP fluorescence by FACS, 10 μM Sildenafil, direct comparison of clones): 7082
Fluorescence intensity Tadalafil ([1]; median GFP fluorescence by FACS, 10 μM Tadalafil, direct comparison of clones): 10100
Fluorescence intensity Vardenafil ([1]; median GFP fluorescence by FACS, 10 μM Vardenafil, direct comparison of clones): 12000
Fluorescence intensity DMSO ([1]; median GFP fluorescence by FACS, vehicle DMSO (no ligand), direct comparison of clones): 6732
Sildenafil Stabilization ratio ([3]; 10 μM, 48 h, HCT-116): 1.25
Vardenafil Stabilization ratio ([3]; 10 μM, 48 h, HCT-116): 1.15
MFI Sildenafil ([3]; GFP, 10 μM Sildenafil 48 h, HCT-116): 53736
MFI Vardenafil ([3]; GFP, 10 μM Vardenafil 48 h, HCT-116): 49344
Vardenafil Stabilization ratio ([3]; hotspot constructs, 1 μM Vardenafil): 1.83
Sildenafil Stabilization ratio ([3]; hotspot constructs, 10 μM Sildenafil): 0.22
GFP by FACS, Sildenafil 10 μM ([3]; hotspot constructs, HCT116): 219
GFP by FACS, Vardenafil 1 μM ([3]; hotspot constructs, HCT116): 294
Substance: OT-001075: hPDE5 wildtype construct, catalytic domain linked to AcGFP, control
GFP FACS analysis (MFI) ([2]; DMSO (no ligand), SDF series, experiment 1): 3140
GFP FACS analysis (MFI) ([2]; DMSO (no ligand), TDF series, experiment 1): 9511
GFP FACS analysis (MFI) ([2]; DMSO (no ligand), VDF series, experiment 1): 7545
GFP FACS analysis (MFI) ([2]; SDF 1.235 μM, experiment 1): 5740
Percent stabilization effect ([2]; SDF 1.235 μM, experiment 1): 66.0%
GFP FACS analysis (MFI) ([2]; SDF 3.704 μM, experiment 1): 6480
Percent stabilization effect ([2]; SDF 3.704 μM, experiment 1): 84.7%
GFP FACS analysis (MFI) ([2]; SDF 11.111 μM, experiment 1): 6848
Percent stabilization effect ([2]; SDF 11.111 μM, experiment 1): 94.1%
Percent stabilization effect ([2]; SDF 11.111 μM, experiment 2): 49.7% and 88.2%
GFP FACS analysis (MFI) ([2]; SDF 33.333 μM, experiment 1): 7025
Percent stabilization effect ([2]; SDF 33.333 μM, experiment 1): 98.6%
Percent stabilization effect ([2]; SDF 33.333 μM, experiment 2): 79.3% and 96.0%
Percent stabilization effect ([2]; SDF 100 μM (set as 100%), experiment 1): 100.0%
Percent stabilization effect ([2]; SDF 100 μM (set as 100%), experiment 2): 100.0%
GFP FACS analysis (MFI) ([2]; SDF 100 μM, experiment 1): 7082
GFP FACS analysis (MFI) ([2]; SDF 100 μM, experiment 2): 39638 and 65696
GFP FACS analysis (MFI) ([2]; TDF 1.235 μM, experiment 1): 6211
Percent stabilization effect ([2]; TDF 1.235 μM, experiment 1): −560.3%
GFP FACS analysis (MFI) ([2]; TDF 3.704 μM, experiment 1): 7039
Percent stabilization effect ([2]; TDF 3.704 μM, experiment 1): −419.7%
GFP FACS analysis (MFI) ([2]; TDF 11.111 μM, experiment 1): 7388
Percent stabilization effect ([2]; TDF 11.111 μM, experiment 1): −360.4%
GFP FACS analysis (MFI) ([2]; TDF 11.111 μM, experiment 2): 89646 and 143351
Percent stabilization effect ([2]; TDF 11.111 μM, experiment 2): 101.2% and 136.4%
GFP FACS analysis (MFI) ([2]; TDF 33.333 μM, experiment 1): 7688
Percent stabilization effect ([2]; TDF 33.333 μM, experiment 1): −309.5%
GFP FACS analysis (MFI) ([2]; TDF 33.333 μM, experiment 2): 97813 and 136420
Percent stabilization effect ([2]; TDF 33.333 μM, experiment 2): 110.9% and 123.3%
Percent stabilization effect ([2]; TDF 100 μM (set as 100%), experiment 1): 100.0%
Percent stabilization effect ([2]; TDF 100 μM (set as 100%), experiment 2): 100.0%
GFP FACS analysis (MFI) ([2]; TDF 100 μM, experiment 1): 10100
GFP FACS analysis (MFI) ([2]; TDF 100 μM, experiment 2): 88657 and 124011
GFP FACS analysis (MFI) ([2]; VDF 1.235 μM, experiment 1): 7393
Percent stabilization effect ([2]; VDF 1.235 μM, experiment 1): −3.4%
GFP FACS analysis (MFI) ([2]; VDF 1.235 μM, experiment 2): 32753 and 47543
Percent stabilization effect ([2]; VDF 1.235 μM, experiment 2): 46.3% and 46.8%
GFP FACS analysis (MFI) ([2]; VDF 3.704 μM, experiment 1): 7592
Percent stabilization effect ([2]; VDF 3.704 μM, experiment 1): 1.1%
GFP FACS analysis (MFI) ([2]; VDF 3.704 μM, experiment 2): 36347 and 49859
Percent stabilization effect ([2]; VDF 3.704 μM, experiment 2): 52.0% and 52.6%
GFP FACS analysis (MFI) ([2]; VDF 11.111 μM, experiment 1): 7964
Percent stabilization effect ([2]; VDF 11.111 μM, experiment 1): 9.4%
GFP FACS analysis (MFI) ([2]; VDF 11.111 μM, experiment 2): 39279 and 50082
Percent stabilization effect ([2]; VDF 11.111 μM, experiment 2): 56.6% and 53.2%
GFP FACS analysis (MFI) ([2]; VDF 33.333 μM, experiment 1): 8854
Percent stabilization effect ([2]; VDF 33.333 μM, experiment 1): 29.4%
GFP FACS analysis (MFI) ([2]; VDF 33.333 μM, experiment 2): 44931 and 53578
Percent stabilization effect ([2]; VDF 33.333 μM, experiment 2): 65.5% and 62.0%
Percent stabilization effect ([2]; VDF 100 μM (set as 100%), experiment 1): 100.0%
Percent stabilization effect ([2]; VDF 100 μM (set as 100%), experiment 2): 100.0%
GFP FACS analysis (MFI) ([2]; VDF 100 μM, experiment 1): 12000
GFP FACS analysis (MFI) ([2]; VDF 100 μM, experiment 2): 66821 and 68646
Fold increase in MFI ([2]; after treatment with sildenafil or vardenafil, NIH3T3): ~1.5 fold
MFI DMSO ([4]; GFP, DMSO 48 h, HCT-116): 42973
GFP by FACS, Sildenafil 0 μM (DMSO) ([4]; hotspot constructs, HCT116, DMSO control of Sildenafil): 989
GFP by FACS, Vardenafil 0 μM (DMSO) ([4]; hotspot constructs, HCT116, DMSO control of Vardenafil): 161
